This is an account of results in patent US10596151B2, “Methods and pharmaceutical compositions for reducing arterial stiffness with a combination of a therapeutic agent blocking the angiotensin receptor and a therapeutic agent inhibiting the NEP enzyme” (Novartis AG, priority 2015, dated 2020).

Where “and” joins values, the source holds several entries; their conditions need not be identical. Equal entries are not always repeated.

For data set [1], the system named is patients with heart failure with preserved ejection fraction. Particulars: cited from earlier work.
Data set [2] concerns patients with mild-to-moderate essential hypertension. The following applies: LCZ696 100, 200 and 400 mg once daily; cited from earlier work.
The test system of data set [3] is elderly patients (≥60 years) with essential hypertension. Put plainly: […] study: central aortic pressures (CASP, CPP/CAPP, central DBP, central MAP) by SphygmoCor X-CEL. In kind it is in vivo, human. The following applies: for LSM change from baseline (SE) in mean CPP at Week 12 endpoint / LSM change from baseline (SE) in mean CASP at Week 12 endpoint: monotherapy; for LSM change from baseline (SE) in mean CASP at Week 12 endpoint: olmesartan 40 mg/day; for LSM change from baseline (SE) in mean CASP at Week 52 endpoint / LSM change from baseline (SE) in mean CPP at Week 52 endpoint: add-on amlodipine/HCTZ allowed; for Change from baseline to 12 weeks, mscDBP / Change from baseline to 52 weeks, mscDBP: mean sitting central diastolic BP; for Change from baseline to 12 weeks, mscMAP / Change from baseline to 52 weeks, mscMAP: mean sitting central mean arterial pressure, mean. The protocol:
The term CAPP refers to central aortic PP. In the context of the present invention CAPP is measured with the SphygmoCor X-CEL System (AtCor Medical, Sydney, Australia) to non-invasively derive the ascending aortic pressure waveform from the brachial waveform using a validated generalised transfer function (GTF). A properly sized BP cuff is linked to a computer and software and the CASP, CAPP, augmentation pressure, and Alx are determined from the analysis of waveform by the system software. […]
The primary and secondary endpoints are changes from baseline in central aortic systolic pressure (CASP) and central aortic PP (CAPP) at week 12, respectively. Other secondary endpoints are the changes in CASP and CAPP at week 52. […] The primary variable will be analysed using a two-way analysis of covariance.
The SphygmoCor X-CEL System (AtCor Medical, Sydney, Australia) is being used to non-invasively derive the ascending aortic pressure waveform from the brachial waveform using a validated generalised transfer function (GTF).22 A properly sized BP cuff is linked to a computer and software and the CASP, CAPP, augmentation pressure, and Alx are determined from the analysis of waveform by the system software.
A sample size of 183 completers per group is targeted, which is calculated based on the primary efficacy variable, change from baseline in mean CASP at 12 weeks, assuming a standard deviation of 19 mm Hg. […] Assuming a 15% dropout rate, the total targeted sample size to be randomised is 432 patients (216 per group). The primary variable at the Week 12 endpoint will be analysed using a two-way analysis of covariance (ANCOVA), with treatment and region as factors and the baseline as a covariate. Mean CAPP at the Week 12 endpoint will be analysed using the same type of ANCOVA model used for the primary efficacy analysis. A two-sided significance at 0.05 level will be used for this analysis and a 95% confidence interval for the treatment difference will be provided.

Setting [4] is: Week 12 endpoint, FAS, LCZ696 400 mg/day.
The mark [5] stands for this setting: Week 52 endpoint (LOCF), FAS, listed as olmesartan.

Take `CCCCC(=O)N(Cc1ccc(-c2ccccc2-c2nn[n-]n2)cc1)C(C(=O)[O-])C(C)C.CCCCC(=O)N(Cc1ccc(-c2ccccc2-c2nn[n-]n2)cc1)C(C(=O)[O-])C(C)C.CCOC(=O)C(C)CC(Cc1ccc(-c2ccccc2)cc1)NC(=O)CCC(=O)[O-].CCOC(=O)C(C)CC(Cc1ccc(-c2ccccc2)cc1)NC(=O)CCC(=O)[O-].O.O.O.O.O.[Na+].[Na+].[Na+].[Na+].[Na+].[Na+]` [LCZ696, trisodium [3-((1S,3R)-1-biphenyl-4-ylmethyl-3-ethoxycarbonyl-1-butylcarbamoyl) propionate-(S)-3′-methyl-2′-(pentanoyl{2″-(tetrazol-5-ylate)biphenyl-4′-ylmethyl}amino)butyrate]hemipentahydrate]: in data set [1] (at 12 weeks), the “reduction of NT-proBNP vs valsartan alone” value is recorded as “to a greater extent than valsartan alone”. In data set [1] (heart failure with preserved ejection fraction), the tolerability result is on record as “well tolerated”. In data set [2], the “BP reductions vs corresponding doses of valsartan alone (160 and 320 mg)” value is on record as “greater BP reductions than corresponding doses of valsartan alone”; the tolerability result was “well tolerated”. For the same compound, the “lowering of CASP and CPP vs olmesartan 40 mg/day” value in data set [3] (LCZ696 400 mg/day, after 12 weeks of monotherapy) was “to a greater extent than olmesartan”. In data set [3] (LCZ696 regimen vs olmesartan regimen, 12 weeks), the “Between-treatment difference, mscDBP, 12 weeks” value was −1.1 (0.90) mmHg. For the same compound, the “Between-treatment difference, mscDBP, 52 weeks” value in data set [3] (LCZ696 regimen vs olmesartan regimen, 52 weeks) was −0.7 (0.86) mmHg. For the same compound, the “LSM difference in change from baseline (SE), mean CPP, LCZ696 vs Olmesartan” value in data set [3] (Week 12 endpoint, FAS, ANCOVA, p=0.012) is −2.45 mmHg and −2.45 (0.96) mmHg. The “LSM change from baseline (SE) in mean CPP at Week 12 endpoint” value in data set [3] (Week 12 endpoint, FAS) is −6.41 mmHg and −6.41 (0.69) mmHg. Also, in data set [3] (setting [4]), the “LSM change from baseline (SE) in mean CASP at Week 12 endpoint” value is −12.57 mmHg and −12.57 (1.01) mmHg. Further, in data set [3] (Week 52 endpoint (LOCF), FAS), the “LSM change from baseline (SE) in mean CASP at Week 52 endpoint” value is −16.18 mmHg and −16.18 (0.96) mmHg; the “LSM change from baseline (SE) in mean CPP at Week 52 endpoint” value was −7.16 mmHg and −7.16 (0.69) mmHg. In addition, in data set [3] (Week 52 endpoint (LOCF), FAS, p=0.271), the “LSM difference in change from baseline (SE), mean CASP, LCZ696 vs Olmesartan” value was −1.49 (1.35) mmHg. For the same compound, in data set [3] (Week 52 endpoint (LOCF), FAS, p=0.598), the “LSM difference in change from baseline (SE), mean CPP, LCZ696 vs Olmesartan” value is reported as −0.51 (0.97) mmHg. Moreover, in data set [3] (12 weeks), the “Change from baseline to 12 weeks, mscDBP” value is given as −6.1 mmHg and the “Change from baseline to 12 weeks, mscMAP” value was −8.0 mmHg. In data set [3] (52 weeks), the “Change from baseline to 52 weeks, mscDBP” value is listed as −8.8 mmHg and the “Change from baseline to 52 weeks, mscMAP” value is on record as −9.6 mmHg.
As to `CCCc1nc(C(C)(C)O)c(C(=O)O)n1Cc1ccc(-c2ccccc2-c2nnn[nH]2)cc1` [Olmesartan, reference compound], the “LSM change from baseline (SE) in mean CPP at Week 12 endpoint” value in data set [3] (Week 12 endpoint, FAS) is reported as −3.96 (0.69) mmHg. Also, the “LSM change from baseline (SE) in mean CASP at Week 12 endpoint” value in data set [3] (setting [4]) is given as −8.90 (1.01) mmHg. Besides, in data set [3] (Week 12 endpoint, FAS, LCZ696 400 mg/day, listed as olmesartan), the “LSM change from baseline (SE) in mean CASP at Week 12 endpoint” value is −8.90 mmHg. Moreover, the “LSM change from baseline (SE) in mean CPP at Week 12 endpoint” value in data set [3] (Week 12 endpoint, FAS, listed as olmesartan) was −3.96 mmHg. In addition, in data set [3] (Week 52 endpoint (LOCF), FAS), the “LSM change from baseline (SE) in mean CASP at Week 52 endpoint” value is recorded as −14.70 (0.96) mmHg and the “LSM change from baseline (SE) in mean CPP at Week 52 endpoint” value is recorded as −6.65 (0.69) mmHg. For the same compound, in data set [3] (setting [5]), the “LSM change from baseline (SE) in mean CASP at Week 52 endpoint” value is reported as −14.70 mmHg and the “LSM change from baseline (SE) in mean CPP at Week 52 endpoint” value is reported as −6.65 mmHg. Further, in data set [3] (12 weeks), the “Change from baseline to 12 weeks, mscDBP” value is listed as −5.0 mmHg and the “Change from baseline to 12 weeks, mscMAP” value is on record as −6.7 mmHg. Moreover, in data set [3] (52 weeks), the “Change from baseline to 52 weeks, mscDBP” value was −8.1 mmHg and the “Change from baseline to 52 weeks, mscMAP” value is listed as −9.1 mmHg.
